From US9879050B2, “Substituted urea depsipeptide analogs as activators of the CLPP endopeptidase” (priority 2013, dated 2018)
In brackets after ≈: the same amount, converted by molar mass. Like-named read-outs stand apart in the source and are kept apart here.

Columns and labels:
S. pneumoniae R6 = test: Minimal inhibitory concentration, microbroth dilution; format: cell-based
Method: (§1) Minimal inhibitory concentrations (“MICs”) were determined using the microbroth dilution method according to Clinical Laboratory Standards Institute (CLSI; National, C.F. C. L. S., Methods for Dilution Antimicrobial Susceptibility Tests for Bacteria Grow aerobically-Seventh Edition: Approved Standard M7-A7, CLSI, Wayne, Pa., USA, 2008) and were read by visual inspection. Two fold serial dilutions of test compound in 100 μL of the appropriate broth media were first prepared in 96-well round bottom microtiter plates (Nalgene Nunc International, Rochester, N.Y., USA). […] The plates were then incubated aerobically at 37° C. All strains were incubated overnight. After incubations, in all cases the MIC was recorded as the lowest concentration of drug that prevented bacterial growth. The bacterial strains for which MIC was determined as described in Table 4.

Sa-ClpP [1] = target: T1, Sa-ClpP (Staphylococcus aureus, UniProt Q2G036); test: ClpP activation, EnzCheck Protease Assay with Bodipy-FL casein (second described method); format: biochemical, S. aureus
T1 construct: made in house; host or cells: E. coli BL21 (DE3)
Method: Alternatively, the assay was carried out using EnzCheck Protease Assay (Molecular Probes, Catalog #E6638). The assay was performed in black 384 well, flat bottom, low volume plates (Greiner Bio-One, Monroe, N.C., catalog #784076). 10 μL of Tris.HCl buffer, pH 8.0 with 0.01% Triton X-100 was pipetted into each well using a Well-Mate (Thermo Scientific, Waltham, Mass.). 0.4 μL test compounds or controls (2% DMSO v/v) were added to each well using a Biomek FX liquid handling robot (Beckman Coulter, Indianapolis Ind.). After addition of test compounds and controls, 10 μL of master mix containing 2 μM Sa-ClpP and 2 μM substrate (Bodipy-FL labeled casein) in Tris*HCl buffer, pH 8.0 with 0.01% (v/v) Triton X-100, was pipetted into each well. All assays were performed in triplicate, under linear velocity conditions. Increase in fluorescent signal following activation of Sa-ClpP by test compounds and controls was measured over time period of 30 mins using filters with excitation at 485±15 nm and emission at 520±25 nm on a PHERAstar FS Multilabel reader (BMG, Cary, N.C.). […] Data analysis was done by measuring rate of casein degradation over time (slopes). Computed degradation rates (slopes) were normalized to positive (ADEP4) or negative (DMSO) controls. Using nonlinear regression curve fitting EC50 values and % activation were determined using the equation “log [agonist]vs. Response-variable slope (four parameters)-symmetrical” in the program Prism 6 (GraphPad Software, La Jolla, Calif. USA, www.graphpad.com).

[2] = Cytotoxicity assay, CellTiter-Glo cell viability; format: cell-based; conditions: African green monkey
Method: Cytotoxicity was determined by determining the effect of compounds on cell viability. Vero (kidney epithelial cells; ATCC CCL-81) monolayers were trypsinized and 5000 cells/well were seeded (10-15% confluency) into white-wall, flat bottom 96 well microwell plates (Corning) using enriched Dulbecco's Modified Eagle's Medium (Hyclone: DMEM/High Glucose) containing 10% Fetal Bovine Serum (ATCC-30-2020). Plates were incubated overnight at 37° C. in the presence of 5% CO2. Drug-free media was then replaced with media containing serial dilutions of test compound or DMSO carrier. After an additional 72 hours of incubation, viability was indirectly measured using the CellTiter-Glo® Luminescent Cell Viability (Promega) assay. Assay plates were read at peak emission wavelength of 560 nm using a EnVision® Multilabel Plate Reader (Perkin Elmer) or PHERAstar FS Multilabel reader (BMG, Cary, N.C.). […] USA, www.graphpad.com]. For each experiment, compounds were tested in duplicate. IC50 values presented are the range of two biologically independent experiments.

S. aureus USA 300 ΔClpP = test: Minimal inhibitory concentration, microbroth dilution; format: cell-based, Staphylococcus aureus; conditions: ClpP inactivated strain
Method: (§2) Minimal inhibitory concentrations (“MICs”) were determined using the microbroth dilution method according to Clinical Laboratory Standards Institute (CLSI; National, C.F. C. L. S., Methods for Dilution Antimicrobial Susceptibility Tests for Bacteria Grow aerobically-Seventh Edition: Approved Standard M7-A7, CLSI, Wayne, Pa., USA, 2008) and were read by visual inspection. Two fold serial dilutions of test compound in 100 μL of the appropriate broth media were first prepared in 96-well round bottom microtiter plates (Nalgene Nunc International, Rochester, N.Y., USA). An equivalent volume (100 μL) of bacterial broth inocula containing approximately 10^5 bacterial cfu/mL was added to each well to give final concentrations of test compound starting at 200 μM. The plates were then incubated aerobically at 37° C. All strains were incubated overnight. After incubations, in all cases the MIC was recorded as the lowest concentration of drug that prevented bacterial growth. The bacterial strains for which MIC was determined as described in Table 4.

Sa-ClpP [3] = target: T1, Sa-ClpP; test: ADEP displacement fluorescence polarization assay; format: binding, S. aureus
Method: A fluorescence polarization (FP) assay was used to determine the activity of the disclosed compounds in displacing an ADEP analogue from ClpP. Briefly, the assay was performed in black 384 well, flat bottom, low volume plates (Greiner Bio-One, Monroe, N.C., catalog #784076). 20 μL of a pre-equilibrated (1 hr, room temperature) master mix (1 μM Sa-ClpP, 2% DMSO (v/v) and 50 nM FP probe in Tris*HCl, pH 8.0)) was pipetted into each well using a Well-Mate (Thermo Scientific, Waltham, Mass.). Sa-ClpP was prepared as described above for the ClpP activation assay. The FP probe was ADEP 2591 (structure shown above). The ADEP 2591 comprises a TAMRA fluorophore linked to a core based on modified ADEP 2378 via a short alkyl linker. Using pin transfer, approximately 0.4 μL (2% v/v DMSO) of each compound or control was added per well. After addition of compounds and controls, plates were allowed to incubate for an additional 120 minutes at room temperature. All assays were performed in triplicate. Polarization was monitored using an EnVision Multilabel reader (Perkin-Elmer, Waltham, Mass.) by exciting the FP probe at 530±25 nm, and monitoring fluorescence intensity of both parallel and perpendicular polarized light at 579±25 nm. Readout was in millipolarization units (mP).
Signal gain and G factors were determined in wells containing 20 μM ADEP 2378, which had been previously verified (data not shown) as containing completely unbound ADEP 2591. Data collected was normalized to values obtained from positive (20 μM ADEP 2378) or negative (DMSO) controls. Curves were fit with non-linear regression using the equation “log [inhibitor]vs. Response-variable slope (four parameters)-symmetrical” in the program Prism 6 (GraphPad Software, La Jolla, Calif. USA, www.graphpad.com). The structures for ADEP 2378 and ADEP 2591 are shown above. ADEP 2378 is (E)-N-((S)-1-(((2R,6S,8aS,14aS,20S,23aS)-2,6-dimethyl-5,8,14,19,23-pentaoxooctadecahydro-1H,5H,14H,19H-pyrido[2,1-i]dipyrrolo[2,1-c:2′,1′-1][1]oxa[4,7,10,13]tetraazacyclohexadecin-20-yl)amino)-1-oxo-3-phenylpropan-2-yl)pent-2-enamide. ADEP 2591 is 5-(3-(3-((6S,9S,11aS,17S,20aS)-6,10-dimethyl-5,8,11,16,20-pentaoxo-17-((S)-2-((E)-pent-2-enamido)-3-phenylpropanamido)hexadecahydro-1H,5H,16H-dipyrrolo[2,1-c:2′,1′-1][1]oxa[4,7,10,13]tetraazacyclohexadecin-9-yl)propyl)thioureido)-2-(6-(dimethylamino)-3-(dimethyliminio)-3H-xanthen-9-yl)benzoate.

S. pyogenes ATCC 700294 = test: Minimal inhibitory concentration, microbroth dilution; format: cell-based; conditions: Streptococcus pyogenes, ATCC700294, read-out: Minimal Inhibitory Concentration S. pyogenes ATCC 700294
Method: as §1

S. aureus ATCC 29213 = test: as above; format: cell-based; conditions: Staphylococcus aureus, ATCC29213, read-out: Minimal Inhibitory Concentration S. aureus ATCC 29213
Method: as §2

B. subtilis ATCC 23857 = test: as above; format: cell-based; conditions: Bacillus subtilis, ATCC23857, read-out: Minimal Inhibitory Concentration B. subtilis ATCC 23857
Method: as §2

[4] = Streptococcus pneumoniae, R6; read-out: Minimal Inhibitory Concentration S. pneumoniae R6
[5] = Vero kidney epithelial cells (ATCC CCL-81), Vero cells, 72 hours, read-out: Cytotoxicity IC50
[6] = Streptococcus pneumoniae, R6, read-out: Minimal Inhibitory Concentration S. pneumoniae R6
[7] = read-out: ClpP Activation EC50 (converted)
[8] = 1 μM Sa-ClpP, 50 nM FP probe ADEP 2591, read-out: ADEP Displacement IC50

T1 sequence (Q2G036 whole entry): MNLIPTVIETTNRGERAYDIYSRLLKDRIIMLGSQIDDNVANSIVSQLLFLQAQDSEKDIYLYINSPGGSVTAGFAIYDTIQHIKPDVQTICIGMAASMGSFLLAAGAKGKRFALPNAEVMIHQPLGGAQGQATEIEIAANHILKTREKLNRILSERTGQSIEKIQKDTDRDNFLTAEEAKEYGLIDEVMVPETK

## C[C@@H]1CC2C(=O)O[C@@H](C)[C@H](NC(=O)[C@H](Cc3cc(F)cc(F)c3)NC(=O)Nc3ccc(OC(F)(F)F)cc3)C(=O)N3CCCC3C(=O)N3CCCCC3C(=O)N[C@@H](C)C(=O)N2C1 (stereo partly drawn) [Compound 40, (S)-3-(3,5-Difluorophenyl)-2-(3-(4-(Trifluoromethoxy)Phenyl)Ureido)-N-((2R,6S,8aS,14aS,20S,21S,23aS)-2,6,21-Trimethyl-5,8,14,19,23-Pentaoxooctadecahydro-1H,5H,14H,19H-Pyrido [2,1-I]Dipyrrolo[2,1-C:2′,1′-L][1]Oxa[4,7,10,13]Tetraazacyclohexadecin-20-Yl)Propanamide]
S. pneumoniae R6; [4]
  MIC: 0.1 µM (≈ 0.0878 µg/mL)
Sa-ClpP [1]
  EC50: 0.36 ± 0.03 µM
[2]
  IC50 at 72 h: 43.8 ± 5.1 µM
S. aureus USA 300 ΔClpP
  Minimal Inhibitory Concentration S. aureus USA 300 ΔClpP: 25 µM
Sa-ClpP [3]
  IC50: 12.7 ± 0.7 µM

## C[C@H]1CC2C(=O)OC[C@H](NC(=O)[C@H](Cc3ccccc3)NC(=O)Nc3ccc(OC(F)(F)F)cc3)C(=O)N3CCCC3C(=O)N3CCCCC3C(=O)N[C@@H](C)C(=O)N2C1 (stereo partly drawn) [Compound 44, (S)—N-((2S,6S,8aS,14aS,20S,23aS)-2,6-Dimethyl-5,8,14,19,23-Pentaoxooctadecahydro-1H,5H,14H,19H-Pyrido[2,1-I]Dipyrrolo[2,1-C:2′,1′-L][1]Oxa[4,7,10,13]Tetraazacyclohexadecin-20-Yl)-3-Phenyl-2-(3-(4-(Trifluoromethoxy)Phenyl)Ureido)Propanamide]
S. pneumoniae R6; [4]
  MIC: 0.1 µM (≈ 0.0828 µg/mL)
Sa-ClpP [1]
  EC50: 0.28 ± 0.01 µM
[2]; [5]
  IC50 at 72 h: 83.8 ± 6.6 µM
S. aureus USA 300 ΔClpP
  Minimal Inhibitory Concentration S. aureus USA 300 ΔClpP: 50 µM
Sa-ClpP [3]
  IC50: 6.76 ± 0.3 µM

## Cc1ccc(NC(=O)N[C@@H](Cc2cc(F)cc(F)c2)C(=O)N[C@H]2COC(=O)C3C[C@H](C)CN3C(=O)[C@H](C)NC(=O)C3CCCCN3C(=O)C3CCCN3C2=O)cc1 (stereo partly drawn) [Compound 45, (S)-3-(3,5-Difluorophenyl)-N-((2S,6S,8aS,14aS,20S,23aS)-2,6-Dimethyl-5,8,14,19,23-Pentaoxooctadecahydro-1H,5H,14H,19H-Pyrido[2,1-I]Dipyrrolo[2,1-C:2′,1′-L][1]Oxa[4,7,10,13]Tetraazacyclohexadecin-20-Yl)-2-(3-(P-Tolyl)Ureido)Propanamide]
S. pyogenes ATCC 700294
  MIC: 0.4 µM (≈ 0.318 µg/mL)
S. pneumoniae R6; [6]
  MIC: 0.1 µM (≈ 0.0794 µg/mL)
Sa-ClpP [1]; [7]
  EC50: 0.54 ± 0.03 µM
[2]; Vero cells, 72 hours, read-out: Cytotoxicity IC50
  IC50 at 72 h: 56.8 ± 6.7 µM
S. aureus USA 300 ΔClpP
  Minimal Inhibitory Concentration S. aureus USA 300 ΔClpP: 100 µM
Sa-ClpP [3]; [8]
  IC50: 6.62 ± 0.2 µM
S. aureus ATCC 29213
  MIC: 0.4 µM (≈ 0.318 µg/mL)

## C[C@H]1CC2C(=O)OC[C@H](NC(=O)[C@H](Cc3cc(F)cc(F)c3)NC(=O)Nc3ccc4c(c3)OCO4)C(=O)N3CCCC3C(=O)N3CCCCC3C(=O)N[C@@H](C)C(=O)N2C1 (stereo partly drawn) [Compound 46, (S)-2-(3-(Benzo[D][1,3]Dioxol-5-Yl)Ureido)-3-(3,5-Difluorophenyl)-N-((2S,6S,8aS,14aS,20S,23aS)-2,6-Dimethyl-5,8,14,19,23-Pentaoxooctadecahydro-1H,5H,14H,19H-Pyrido[2,1-I]Dipyrrolo[2,1-C:2′,1′-L][1]Oxa[4,7,10,13]Tetraazacyclohexadecin-20-Yl)Propanamide]
S. pneumoniae R6; [4]
  MIC: 0.4 µM (≈ 0.33 µg/mL)
Sa-ClpP [1]
  EC50: 0.32 ± 0.02 µM
[2]; [5]
  IC50 at 72 h: 71.8 ± 5.4 µM
S. aureus USA 300 ΔClpP
  Minimal Inhibitory Concentration S. aureus USA 300 ΔClpP: 200 µM
Sa-ClpP [3]
  IC50: 4.61 ± 0.2 µM

## Cc1ccc(NC(=O)N[C@@H](Cc2cc(F)cc(F)c2)C(=O)N[C@@H]2C(=O)N3CCCC3C(=O)N3CCOCC3C(=O)N[C@@H](C)C(=O)N3C[C@H](C)CC3C(=O)O[C@H]2C)cc1 (stereo partly drawn) [Compound 47, (S)-3-(3,5-Difluorophenyl)-2-(3-(P-Tolyl)Ureido)-N-((6aS,12S,13S,15aS,17R,21S,23aS)-13,17,21-Trimethyl-6,11,15,20,23-Pentaoxooctadecahydro-6H,11H,15H-[1,4]Oxazino[3,4-I]Dipyrrolo[2,1-C:2′,1′-L][1]Oxa[4,7,10,13]Tetraazacyclohexadecin-12-Yl)Propanamide]
S. pyogenes ATCC 700294
  MIC: 0.02 µM (≈ 0.0162 µg/mL)
S. pneumoniae R6; [6]
  MIC: 0.002 µM (≈ 0.00162 µg/mL)
Sa-ClpP [1]; [7]
  EC50: 0.4 ± 0.01 µM
S. aureus USA 300 ΔClpP
  Minimal Inhibitory Concentration S. aureus USA 300 ΔClpP: >200 µM
Sa-ClpP [3]; [8]
  IC50: 7.01 ± 0.3 µM
B. subtilis ATCC 23857
  MIC: 0.8 µM (≈ 0.648 µg/mL)
S. aureus ATCC 29213
  MIC: 0.003 µM (≈ 0.00243 µg/mL)
